Test results from ChEMBL document CHEMBL4417631, “Oral peptide inhibitors of interleukin-23 receptor and their use to treat inflammatory bowel diseases” (2017).
Where a SMILES comes first, the peptide text is derived from it. [ ]: non-standard residue; d: D form. hLeu = CC(C)CC[C@H](N)C(=O)O

Test: Inhibition of interleukin-23 binding to rat interleukin-23 receptor incubated for 2 hrs by competitive binding ELISA

IC50 [nM] | Structure (SMILES)
85 | CC(=O)N[C@@H](CS)C(=O)N(C)[C@@H](CCC(N)=O)C(=O)N[C@H](C(=O)N[C@@H](Cc1c[nH]c2ccccc12)C(=O)N[C@@H](CCC(N)=O)C(=O)N[C@@H](CS)C(=O)N[C@@H](Cc1ccc(O)cc1)C(=O)N[C@@H](Cc1c[nH]c2ccccc12)C(=O)N[C@@H](CCCNC(=N)N)C(=O)N[C@H](C(=O)N[C@@H](Cc1ccccc1)C(=O)NCC(=O)NCCC(=O)N[C@H](CCCCN)C(N)=O)C(C)C)[C@@H](C)O
51 | CC(=O)N[C@@H](CS)C(=O)N[C@@H](CCC(N)=O)C(=O)N[C@H](C(=O)N[C@@H](Cc1c[nH]c2ccccc12)C(=O)N[C@@H](CCC(N)=O)C(=O)N[C@@H](CS)C(=O)N[C@@H](Cc1ccc(O)cc1)C(=O)N[C@@H](Cc1ccc(-c2ccccc2)cc1)C(=O)N[C@@H](CCC(C)C)C(=O)N[C@@H](CCC(=O)O)C(=O)N[C@@H](CC(N)=O)C(=O)NCC(N)=O)[C@@H](C)O
37 | CC(=O)N[C@@H](CS)C(=O)N[C@@H](CCC(N)=O)C(=O)N[C@H](C(=O)N[C@@H](Cc1c[nH]c2ccccc12)C(=O)N[C@@H](CCC(N)=O)C(=O)N[C@@H](CS)C(=O)N[C@@H](Cc1ccc(O)cc1)C(=O)N[C@@H](Cc1cccc2ccccc12)C(=O)N[C@@H](CCC(C)C)C(=O)N[C@@H](CCC(=O)O)C(=O)N[C@@H](CC(N)=O)C(=O)NCC(N)=O)[C@@H](C)O
140 | CC(=O)N[C@@H](CS)C(=O)N[C@@H](CCC(N)=O)C(=O)N[C@H](C(=O)N[C@@H](Cc1c[nH]c2ccccc12)C(=O)N[C@@H](CCC(N)=O)C(=O)N[C@@H](CS)C(=O)N[C@@H](Cc1ccc(O)cc1)C(=O)N[C@@H](Cc1c[nH]c2ccccc12)C(=O)N[C@@H](CCC(C)C)C(=O)N[C@@H](CCC(=O)O)C(=O)N1CCC[C@H]1C(=O)NCC(N)=O)[C@@H](C)O
1000 | CC(=O)N[C@@H](CS)C(=O)N[C@@H](CCC(N)=O)C(=O)N[C@H](C(=O)N[C@@H](Cc1c[nH]c2ccccc12)C(=O)N[C@@H](CCC(N)=O)C(=O)N[C@@H](CS)C(=O)N[C@@H](Cc1ccc(O)cc1)C(=O)N[C@@H](Cc1c[nH]c2ccccc12)C(=O)N[C@@H](CCC(C)C)C(=O)N[C@@H](CCC(=O)O)C(=O)N[C@@H](CC(N)=O)C(=O)N[C@@H](CCC(=O)O)C(N)=O)[C@@H](C)O
204 | CC(=O)N[C@@H](CS)C(=O)N[C@@H](CO)C(=O)N[C@H](C(=O)N[C@@H](Cc1c[nH]c2ccccc12)C(=O)N[C@@H](CCC(N)=O)C(=O)N[C@@H](CS)C(=O)N[C@@H](Cc1ccc(O)cc1)C(=O)N[C@@H](Cc1c[nH]c2ccccc12)C(=O)N[C@@H](CO)C(=O)N[C@@H](CCCCN)C(=O)N[C@@H](CCC(N)=O)C(=O)N[C@@H](CO)C(=O)NCC(=O)NCC(=O)N[C@@H](CO)C(N)=O)[C@@H](C)O (Ac-CSTWQCYWSKQSGGS-NH2)
53 | CC(=O)N[C@@H](CS)C(=O)N[C@@H](CCC(N)=O)C(=O)N[C@H](C(=O)N[C@@H](Cc1c[nH]c2ccccc12)C(=O)N[C@@H](CCC(N)=O)C(=O)N[C@@H](CS)C(=O)N[C@@H](Cc1ccc(O)cc1)C(=O)N[C@@H](Cc1c[nH]c2ccccc12)C(=O)N[C@@H](CCC(C)C)C(=O)N[C@@H](CCC(=O)O)C(=O)N[C@@H](CCC(=O)O)C(=O)NCC(N)=O)[C@@H](C)O (Ac-CQTWQCYW[hLeu]EEG-NH2)
26 | CC(=O)N[C@@H](CC(C)C)C(=O)N[C@@H](CS)C(=O)N[C@@H](CCC(N)=O)C(=O)N[C@H](C(=O)N[C@@H](Cc1c[nH]c2ccccc12)C(=O)N[C@@H](CCC(N)=O)C(=O)N[C@@H](CS)C(=O)N[C@@H](Cc1ccc(O)cc1)C(=O)N[C@@H](Cc1c[nH]c2ccccc12)C(=O)N[C@@H](CCC(C)C)C(=O)N[C@@H](CCC(=O)O)C(=O)N[C@@H](CC(N)=O)C(=O)NCC(N)=O)[C@@H](C)O
86 | CC(=O)N[C@@H](CS)C(=O)N[C@@H](CCCNC(=N)N)C(=O)N[C@H](C(=O)N[C@@H](Cc1c[nH]c2ccccc12)C(=O)N[C@@H](CCC(N)=O)C(=O)N[C@@H](CS)C(=O)N[C@@H](Cc1ccc(O)cc1)C(=O)N[C@@H](Cc1c[nH]c2ccccc12)C(=O)N[C@@H](CCCNC(=N)N)C(=O)N[C@@H](CCC(=O)O)C(=O)N[C@@H](CC(N)=O)C(=O)NCC(=O)N[C@@H](C)C(=O)N[C@H](CCCCN)C(N)=O)[C@@H](C)O
